This is an account of results in PubChem BioAssay (NCI).

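Values below derive from 48-hour exposures of cells grown in 96-well plates, with endpoints linearly interpolated between the two concentrations bracketing the appropriate inhibition level. Definition used: TGI = concentration required for complete inhibition of growth.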

Some test systems named below: EKVX NSCLC; 786-0 renal; SNB-19 CNS; HCT-15 colon; NCI-H23 lung; MDA-N; SN12C renal; SF-295 CNS; HCC-2998 colon; A549 NSCLC; OVCAR-4 ovarian; ACHN renal; HCT-116 colon; BT-549 breast; KM12 colon; OVCAR-5 ovarian; U251 CNS.
Holding throughout (assay): inhibition of tumour cell growth, NCI panel, 48 h

In the case of `NC1CCN(c2nc3ccccc3c3c2CCCC3)CC1`, the TGI in the experiment with EKVX NSCLC was 21.4 µM; in the experiment with 786-0 renal, 13.3 µM; in the experiment on SNB-19 CNS it was 22.7 µM; in the experiment with HCT-15 colon it was 17.7 µM; in the experiment on NCI-H23 lung, 28.2 µM; in the experiment with MDA-N, 9.6 µM. Besides, the TGI in the experiment with SN12C renal was 21.5 µM; in the experiment with SF-295 CNS, 26.4 µM; in the experiment with HCC-2998 colon it was 3.2 µM; in the experiment with A549 NSCLC, 23.5 µM; in the experiment with OVCAR-4 ovarian it was 4.63 µM; in the experiment with ACHN renal, 22.4 µM. Besides, the TGI in the experiment on HCT-116 colon is 14.4 µM; in the experiment on BT-549 breast it was 25.9 µM; in the experiment with KM12 colon, 15.2 µM; in the experiment on OVCAR-5 ovarian, 19 µM; in the experiment on U251 CNS, 14.8 µM.
Consider `FC(F)(F)c1ccc2c(-c3cc[nH]c3)ccnc2c1`, for which the TGI in the experiment on EKVX NSCLC was > 100 µM; in the experiment on 786-0 renal it was 32.1 µM; in the experiment on SNB-19 CNS it was 58.8 µM; in the experiment with HCT-15 colon it was > 100 µM; with NCI-H23 lung, > 100 µM; with MDA-N, > 100 µM. The TGI with SN12C renal is > 100 µM; with SF-295 CNS it was 84.1 µM; with HCC-2998 colon it was > 100 µM; in the experiment with A549 NSCLC, 75 µM; in the experiment on OVCAR-4 ovarian, > 100 µM; with ACHN renal, > 100 µM. The TGI in the experiment on HCT-116 colon is > 100 µM; in the experiment with BT-549 breast, 68.9 µM; in the experiment with KM12 colon, > 100 µM; with OVCAR-5 ovarian, 87.4 µM; with U251 CNS it was > 100 µM.
As for `CC1(C)CN(CC(=O)O)CC(Cc2ccc(OCC(=O)O)cc2)N(CC(=O)O)CC(C)(C)SS1` (centres undefined), the TGI in the experiment with EKVX NSCLC, in the experiment with 786-0 renal, in the experiment with SNB-19 CNS, with HCT-15 colon, with NCI-H23 lung and in the experiment with MDA-N was > 100 µM each time. The TGI with SN12C renal, in the experiment with SF-295 CNS, with HCC-2998 colon, with A549 NSCLC, in the experiment on OVCAR-4 ovarian and in the experiment with ACHN renal was > 100 µM throughout. In addition, the TGI in the experiment with HCT-116 colon, in the experiment with BT-549 breast, in the experiment on KM12 colon, in the experiment with OVCAR-5 ovarian and in the experiment with U251 CNS was > 100 µM throughout.
Take `COc1ccccc1NC1Oc2cc3c(cc2C(c2cc(OC)c(OC)c(OC)c2)C1C)OCO3` (centres undefined): the TGI is > 100 µM in the experiment with EKVX NSCLC; 36.8 µM in the experiment with 786-0 renal; > 100 µM with SNB-19 CNS; > 100 µM in the experiment on HCT-15 colon; > 82.1 µM with NCI-H23 lung; 1.82 µM in the experiment on MDA-N. In addition, the TGI in the experiment on SN12C renal is > 65.3 µM; with SF-295 CNS it was 2.99 µM; in the experiment with HCC-2998 colon, 7.93 µM; in the experiment with A549 NSCLC, > 100 µM; with OVCAR-4 ovarian it was > 78.5 µM; with ACHN renal, > 100 µM. In addition, the TGI in the experiment with HCT-116 colon was > 33.1 µM; in the experiment on BT-549 breast, > 70.8 µM; with KM12 colon it was 29.4 µM; in the experiment on OVCAR-5 ovarian it was > 100 µM; in the experiment with U251 CNS it was 51.2 µM.
Take `N#Cc1ccc(C2ON=C(c3ccccc3)N2C23CC4CC(CC(C4)C2)C3)cc1` (centres undefined): the TGI in the experiment on EKVX NSCLC, with 786-0 renal, in the experiment with SNB-19 CNS, with HCT-15 colon, with NCI-H23 lung and in the experiment with MDA-N was > 10 µM throughout. Further, the TGI in the experiment on SN12C renal, in the experiment with SF-295 CNS, in the experiment with HCC-2998 colon, in the experiment on A549 NSCLC, in the experiment with OVCAR-4 ovarian and in the experiment on ACHN renal was > 10 µM throughout. Also, the TGI in the experiment on HCT-116 colon, in the experiment with BT-549 breast, in the experiment with KM12 colon, in the experiment with OVCAR-5 ovarian and with U251 CNS was > 10 µM in each case.
Regarding `Cn1c(=O)c2c(nc3n2CCCC(=O)N3CCCCl)n(C)c1=O`, the TGI in the experiment with EKVX NSCLC, in the experiment on 786-0 renal, with SNB-19 CNS, in the experiment on HCT-15 colon, in the experiment on NCI-H23 lung and in the experiment with MDA-N was > 100 µM throughout. In addition, the TGI in the experiment on SN12C renal, with SF-295 CNS, in the experiment on HCC-2998 colon, in the experiment with A549 NSCLC, in the experiment with OVCAR-4 ovarian and in the experiment on ACHN renal was > 100 µM in each case. The TGI in the experiment with HCT-116 colon, with BT-549 breast, in the experiment on KM12 colon, in the experiment on OVCAR-5 ovarian and in the experiment on U251 CNS was > 100 µM each time.
`Oc1ccc(Br)cc1C=Nc1c(NC2CCCCC2)oc2ccc(Br)cc12`: the TGI with EKVX NSCLC was > 100 µM; in the experiment on 786-0 renal it was > 100 µM; in the experiment with SNB-19 CNS it was > 100 µM; in the experiment with HCT-15 colon, > 100 µM; in the experiment on NCI-H23 lung, 56 µM; with MDA-N, > 100 µM. Further, the TGI with SN12C renal, with SF-295 CNS, with HCC-2998 colon, in the experiment on A549 NSCLC, in the experiment on OVCAR-4 ovarian and in the experiment with ACHN renal was > 100 µM each time. For the same molecule, the TGI in the experiment on HCT-116 colon is 28.7 µM; with BT-549 breast it was 90.9 µM; in the experiment on KM12 colon, > 100 µM; in the experiment on OVCAR-5 ovarian, > 100 µM; with U251 CNS, > 100 µM.
